# Key:
# MSSA = experiment: Plug-based drug screening in human blood plasma/LB; settings: 1:1 human blood plasma/LB; breakpoint concentration; 7.5 h at 37° C.
# [1] = tested on: Methicillin Sensitive S. aureus (MSSA); settings: CFX 24 mg/L; stated as known; cited from earlier work
# [2] = tested on: Methicillin Resistant S. aureus (MRSA); settings: CFX 24 mg/L; stated as known; cited from earlier work
# [3] = tested on: Methicillin Resistant S. aureus (MRSA); experiment: MIC determination in plugs; settings: Staphylococcus aureus, 6.75 h, read-out: MIC of CFX for MRSA
# [4] = tested on: Methicillin Sensitive S. aureus (MSSA); experiment: MIC determination in plugs; settings: Staphylococcus aureus, 6.5 h, read-out: MIC of CFX for MSSA
# [5] = tested on: MSSA (Staphylococcus aureus ATCC# 25923); experiment: Antibiotic testing on Mueller Hinton agar plates; settings: 30° C., even after 40 h
# Method: Plates were made from Mueller Hinton Agar (Fluka, Switzerland). After autoclaving, the agar was cooled and antibiotics were added and 20 mL plates were poured. For CFX and OXA testing, 50 μL of MRSA and MSSA bacterial culture at 4×10^3 CFU/mL was spread onto separate TSA plates. The plates were incubated at 30° C. After 16.5 h and 40 h the plates were examined for colonies. […] For AMP, ERT, LVF, and VCM, 5 μL of culture at 2×10^4 CFU/mL were spread onto plates, and the plates were incubated at 37° C. for 12 h. After 12 h, growth of colonies on the plates was considered resistance to the antibiotic and no colonies on the plates were considered sensitivity to the antibiotic.
# S. aureus strain (MRSA) = experiment: Macro-scale experiments (negative control check); assay type: cell-based, Staphylococcus aureus; settings: data not shown
# [6] = tested on: Methicillin Resistant S. aureus (MRSA, ATCC# 43300); experiment: Plug-based microfluidic antibiotic susceptibility screen (stochastic confinement, alamarBlue viability indicator); assay type: cell-based, Staphylococcus aureus; settings: breakpoint concentration, 4 nL plugs, 4×10^5 CFU/mL, 7 h at 37° C.
structure (smiles),measurement,setting,value
"CC1(C)S[C@@H]2[C@H](NC(=O)[C@H](N)c3ccccc3)C(=O)N2[C@H]1C(=O)O [AMP, ampicillin]",Increase in fluorescence intensity of plugs containing MSSA and antibiotic,MSSA,no increase in fluorescence intensity
"CO[C@@]1(NC(=O)Cc2cccs2)C(=O)N2C(C(=O)O)=C(COC(N)=O)CS[C@@H]21 [CFX, cefoxitin]",Inhibition of MSSA at the positive control concentration,[1],inhibited
same,Inhibition of MRSA at the positive control concentration,[2],inhibited
same,MIC,[3],< 8000 µg/mL
same,MIC,[4],< 4000 µg/mL
same,Appearance of MSSA colonies on antibiotic plates,[5],did not appear
"Cc1onc(-c2ccccc2)c1C(=O)N[C@@H]1C(=O)N2[C@@H]1SC(C)(C)[C@@H]2C(=O)O [OXA, oxacillin]",Appearance of MSSA colonies on antibiotic plates,[5],did not appear
"CN[C@H](CC(C)C)C(=O)N[C@H]1C(=O)N[C@@H](CC(N)=O)C(=O)N[C@H]2C(=O)N[C@H]3C(=O)N[C@H](C(=O)N[C@H](C(=O)O)c4cc(O)cc(O)c4-c4cc3ccc4O)[C@H](O)c3ccc(c(Cl)c3)Oc3cc2cc(c3O[C@@H]2O[C@H](CO)[C@@H](O)[C@H](O)[C@H]2O[C@H]2C[C@](C)(N)[C@H](O)[C@H](C)O2)Oc2ccc(cc2Cl)[C@H]1O [VCM, vancomycin]",Inhibition of the S. aureus strain in macro-scale experiments,S. aureus strain (MRSA),inhibited
same,Susceptibility of MRSA to antibiotic (increase in fluorescence intensity of plugs versus 3 times the VCM baseline),[6],sensitive
same,Susceptibility of MRSA to antibiotic (increase in fluorescence intensity of plugs versus 3 times the VCM baseline),[6]; listed as Vancomycin,not resistant

# From patent US11661577B2, “Co-incubating confined microbial communities” (CALIFORNIA INSTITUTE OF TECHNOLOGY, priority 2007, dated 2023)
